Assay results: US20090098130A1, “GLUCAGON-LIKE PROTEIN-1 RECEPTOR (GLP-1R) AGONIST COMPOUNDS” (priority 2007, published 2009)
pEC50: −log10 of the molar value. Non-standard residues stand in square brackets, D forms with d. Residues, ends and D or L forms follow the SMILES beside them. Aib = CC(C)(N)C(=O)O

Tested on: pancreatic β cells
Assay: glucose-stimulated insulin secretion (GSIS) assay
Assay type: cell-based
Conditions: GA targeting agent-linker conjugate; GSIS assay in vitro
Experimental: Briefly, glucose and GA targeting peptide was added at various concentrations to pancreatic β cell cultures, and insulin secretion was detected by measuring insulin levels over time. EC50 was calculated for each peptide.
The ability of these GA targeting agent-linker conjugates to stimulate […] secretion in vitro was measured using the GSIS assay described in Example 27. […] Each of these peptides contained a side-chain modified Lys residue according to the scheme illustrated in FIG. 30 at a different position.

SMILES | pEC50
CC[C@H](C)[C@H](NC(=O)[C@H](Cc1ccccc1)NC(=O)[C@H](CCC(=O)O)NC(=O)[C@H](CCCCN)NC(=O)[C@@H](NC(=O)[C@H](C)NC(=O)[C@H](CCC(N)=O)NC(=O)[C@H](CCC(=O)O)NC(=O)[C@H](CCC(=O)O)NC(=O)[C@H](CC(C)C)NC(=O)[C@H](Cc1ccc(O)cc1)NC(=O)[C@H](CO)NC(=O)[C@H](CO)NC(=O)[C@@H](NC(=O)[C@H](CC(=O)O)NC(=O)[C@H](CO)NC(=O)[C@@H](NC(=O)[C@H](Cc1ccccc1)NC(=O)[C@@H](NC(=O)CNC(=O)[C@H](CCC(=O)O)NC(=O)C(C)(C)NC(=O)[C@H](Cc1c[nH]cn1)NC(=O)Cc1cccc(N)c1)[C@@H](C)O)[C@@H](C)O)C(C)C)C(C)C)C(=O)N[C@@H](C)C(=O)N[C@@H](Cc1c[nH]c2ccccc12)C(=O)N[C@@H](CC(C)C)C(=O)N[C@H](C(=O)N[C@@H](CCCCN)C(=O)NC(C)(C)C(=O)N[C@@H](CCCNC(=N)N)C(N)=O)[C@@H](C)CC | > 5.00

Same assay, conditions: GA targeting peptide; insulin secretion from pancreatic β cell cultures in vitro with glucose

SMILES | pEC50
CC[C@H](C)[C@H](NC(=O)[C@H](Cc1ccccc1)NC(=O)[C@H](CCC(=O)O)NC(=O)[C@H](CCCCN)NC(=O)[C@H](C)NC(=O)[C@H](C)NC(=O)[C@H](CCC(N)=O)NC(=O)CNC(=O)[C@H](CCC(=O)O)NC(=O)[C@H](CS)NC(=O)[C@H](Cc1ccc(O)cc1)NC(=O)[C@H](CO)NC(=O)[C@H](CO)NC(=O)[C@@H](NC(=O)[C@H](CC(=O)O)NC(=O)[C@H](CO)NC(=O)[C@@H](NC(=O)[C@H](Cc1ccccc1)NC(=O)[C@@H](NC(=O)CNC(=O)[C@H](CCC(=O)O)NC(=O)C(C)(C)NC(=O)[C@@H](N)Cc1c[nH]cn1)[C@@H](C)O)[C@@H](C)O)C(C)C)C(=O)N[C@@H](C)C(=O)N[C@@H](Cc1c[nH]c2ccccc12)C(=O)N[C@@H](CC(C)C)C(=O)N[C@H](C(=O)N[C@@H](CCCCN)C(=O)NC(C)(C)C(=O)N[C@@H](CCCNC(=N)N)C(N)=O)C(C)C [SEQ ID NO: 41] (H-H[Aib]EGTFTSDVSSYCEGQAAKEFIAWLVK[Aib]R-NH2) | > 5.00
CC[C@H](C)[C@H](NC(=O)[C@H](Cc1ccccc1)NC(=O)[C@H](CCC(=O)O)NC(=O)[C@H](CCCNC(=N)N)NC(=O)[C@H](C)NC(=O)[C@H](C)NC(=O)[C@H](CCC(N)=O)NC(=O)CNC(=O)[C@H](CCC(=O)O)NC(=O)[C@H](CC(C)C)NC(=O)[C@H](Cc1ccc(O)cc1)NC(=O)[C@H](CO)NC(=O)[C@H](CO)NC(=O)[C@@H](NC(=O)[C@H](CC(=O)O)NC(=O)[C@H](CO)NC(=O)[C@@H](NC(=O)[C@H](Cc1ccccc1)NC(=O)[C@@H](NC(=O)CNC(=O)[C@H](CCC(=O)O)NC(=O)C(C)(C)NC(=O)[C@@H](N)Cc1c[nH]cn1)[C@@H](C)O)[C@@H](C)O)C(C)C)C(=O)N[C@@H](C)C(=O)N[C@@H](Cc1c[nH]c2ccccc12)C(=O)N[C@@H](CC(C)C)C(=O)N[C@H](C(=O)N[C@@H](CCCCN)C(=O)NC(C)(C)C(=O)N[C@@H](CCCNC(=N)N)C(N)=O)C(C)C [SEQ ID NO: 51] (H-H[Aib]EGTFTSDVSSYLEGQAAREFIAWLVK[Aib]R-NH2) | > 5.00
CC[C@H](C)[C@H](NC(=O)[C@H](Cc1ccccc1)NC(=O)[C@H](CCC(=O)O)NC(=O)[C@H](CCCCN)NC(=O)[C@H](C)NC(=O)[C@H](C)NC(=O)[C@H](CCC(N)=O)NC(=O)CNC(=O)[C@H](CCC(=O)O)NC(=O)[C@H](CC(C)C)NC(=O)[C@H](Cc1ccc(O)cc1)NC(=O)[C@H](CO)NC(=O)[C@H](CO)NC(=O)[C@@H](NC(=O)[C@H](CC(=O)O)NC(=O)[C@H](CO)NC(=O)[C@@H](NC(=O)[C@H](Cc1ccccc1)NC(=O)[C@@H](NC(=O)CNC(=O)[C@H](CCC(=O)O)NC(=O)C(C)(C)NC(=O)[C@@H](N)Cc1c[nH]cn1)[C@@H](C)O)[C@@H](C)O)C(C)C)C(=O)N[C@@H](C)C(=O)N[C@@H](Cc1c[nH]c2ccccc12)C(=O)N[C@@H](CC(C)C)C(=O)N[C@H](C(=O)N[C@@H](CCCNC(=N)N)C(=O)NC(C)(C)C(=O)N[C@@H](CCCNC(=N)N)C(N)=O)C(C)C [SEQ ID NO: 55] | > 5.00
CC[C@H](C)[C@H](NC(=O)[C@H](Cc1ccccc1)NC(=O)[C@H](CCC(=O)O)NC(=O)[C@H](CCCCN)NC(=O)[C@H](C)NC(=O)[C@H](C)NC(=O)[C@H](CCC(N)=O)NC(=O)CNC(=O)[C@H](CCC(=O)O)NC(=O)[C@H](CC(C)C)NC(=O)[C@H](Cc1ccc(O)cc1)NC(=O)[C@H](CO)NC(=O)[C@H](CO)NC(=O)[C@@H](NC(=O)[C@H](CC(=O)O)NC(=O)[C@H](CO)NC(=O)[C@@H](NC(=O)[C@H](Cc1ccccc1)NC(=O)[C@@H](NC(=O)CNC(=O)[C@H](CCC(=O)O)NC(=O)[C@H](C)NC(=O)[C@@H](N)Cc1c[nH]cn1)[C@@H](C)O)[C@@H](C)O)C(C)C)C(=O)N[C@@H](C)C(=O)N[C@@H](Cc1c[nH]c2ccccc12)C(=O)N[C@@H](CC(C)C)C(=O)N[C@H](C(=O)N[C@@H](CCCCN)C(=O)NCC(=O)N[C@@H](CCCNC(=N)N)C(N)=O)C(C)C [SEQ ID NO: 1, reference compound] | > 5.00
CC[C@H](C)[C@H](NC(=O)[C@H](Cc1ccccc1)NC(=O)[C@H](CCC(=O)O)NC(=O)[C@H](CCCCN)NC(=O)[C@@H](NC(=O)[C@H](C)NC(=O)[C@H](CCC(N)=O)NC(=O)[C@H](CCC(=O)O)NC(=O)[C@H](CCC(=O)O)NC(=O)[C@H](Cc1c[nH]c2ccccc12)NC(=O)[C@H](Cc1ccc(O)cc1)NC(=O)[C@H](CO)NC(=O)[C@H](CO)NC(=O)[C@@H](NC(=O)[C@H](CC(=O)O)NC(=O)[C@H](CO)NC(=O)[C@@H](NC(=O)[C@H](Cc1ccccc1)NC(=O)[C@@H](NC(=O)CNC(=O)[C@H](CCC(=O)O)NC(=O)C(C)(C)NC(=O)[C@@H](N)Cc1c[nH]cn1)[C@@H](C)O)[C@@H](C)O)C(C)C)C(C)C)C(=O)N[C@@H](C)C(=O)N[C@@H](Cc1c[nH]c2ccccc12)C(=O)N[C@@H](CC(C)C)C(=O)N[C@H](C(=O)N[C@@H](CCCCN)C(=O)NC(C)(C)C(=O)N[C@@H](CCCNC(=N)N)C(N)=O)[C@@H](C)CC [SEQ ID NO: 60] (H-H[Aib]EGTFTSDVSSYWEEQAVKEFIAWLIK[Aib]R-NH2) | > 5.00
CC[C@H](C)[C@H](NC(=O)[C@H](Cc1ccccc1)NC(=O)[C@H](CCC(=O)O)NC(=O)[C@H](CCCCN)NC(=O)[C@H](C)NC(=O)[C@H](C)NC(=O)[C@H](CCC(N)=O)NC(=O)[C@H](CCCCN)NC(=O)[C@H](CCC(=O)O)NC(=O)[C@H](CC(C)C)NC(=O)[C@H](Cc1ccc(O)cc1)NC(=O)[C@H](CO)NC(=O)[C@H](CO)NC(=O)[C@@H](NC(=O)[C@H](CC(=O)O)NC(=O)[C@H](CO)NC(=O)[C@@H](NC(=O)[C@H](Cc1ccccc1)NC(=O)[C@@H](NC(=O)CNC(=O)[C@H](CCC(=O)O)NC(=O)C(C)(C)NC(=O)[C@@H](N)Cc1c[nH]cn1)[C@@H](C)O)[C@@H](C)O)C(C)C)C(=O)N[C@@H](C)C(=O)N[C@@H](Cc1c[nH]c2ccccc12)C(=O)N[C@@H](CC(C)C)C(=O)N[C@H](C(=O)N[C@@H](CCCCN)C(=O)NC(C)(C)C(=O)N[C@@H](CCCNC(=N)N)C(N)=O)C(C)C [SEQ ID NO: 47] (H-H[Aib]EGTFTSDVSSYLEKQAAKEFIAWLVK[Aib]R-NH2) | > 5.00
CC[C@H](C)[C@H](NC(=O)[C@H](Cc1ccccc1)NC(=O)[C@H](CCC(=O)O)NC(=O)[C@H](CCCCN)NC(=O)[C@@H](NC(=O)[C@H](C)NC(=O)[C@H](CCC(N)=O)NC(=O)[C@H](CCC(=O)O)NC(=O)[C@H](CCC(=O)O)NC(=O)[C@H](Cc1ccc(O)cc1)NC(=O)[C@H](Cc1ccc(O)cc1)NC(=O)[C@H](CO)NC(=O)[C@H](CO)NC(=O)[C@@H](NC(=O)[C@H](CC(=O)O)NC(=O)[C@H](CO)NC(=O)[C@@H](NC(=O)[C@H](Cc1ccccc1)NC(=O)[C@@H](NC(=O)CNC(=O)[C@H](CCC(=O)O)NC(=O)C(C)(C)NC(=O)[C@@H](N)Cc1c[nH]cn1)[C@@H](C)O)[C@@H](C)O)C(C)C)C(C)C)C(=O)N[C@@H](C)C(=O)N[C@@H](Cc1c[nH]c2ccccc12)C(=O)N[C@@H](CC(C)C)C(=O)N[C@H](C(=O)N[C@@H](CCCCN)C(=O)NC(C)(C)C(=O)N[C@@H](CCCNC(=N)N)C(N)=O)[C@@H](C)CC [SEQ ID NO: 59] (H-H[Aib]EGTFTSDVSSYYEEQAVKEFIAWLIK[Aib]R-NH2) | > 5.00
CC[C@H](C)[C@H](NC(=O)[C@H](Cc1ccccc1)NC(=O)[C@H](CCC(=O)O)NC(=O)[C@H](CCCCN)NC(=O)[C@H](C)NC(=O)[C@H](C)NC(=O)[C@H](CCC(N)=O)NC(=O)CNC(=O)[C@H](CCC(=O)O)NC(=O)CNC(=O)[C@H](Cc1ccc(O)cc1)NC(=O)[C@H](CO)NC(=O)[C@H](CO)NC(=O)[C@@H](NC(=O)[C@H](CC(=O)O)NC(=O)[C@H](CO)NC(=O)[C@@H](NC(=O)[C@H](Cc1ccccc1)NC(=O)[C@@H](NC(=O)CNC(=O)[C@H](CCC(=O)O)NC(=O)C(C)(C)NC(=O)[C@@H](N)Cc1c[nH]cn1)[C@@H](C)O)[C@@H](C)O)C(C)C)C(=O)N[C@@H](C)C(=O)N[C@@H](Cc1c[nH]c2ccccc12)C(=O)N[C@@H](CC(C)C)C(=O)N[C@H](C(=O)N[C@@H](CCCCN)C(=O)NC(C)(C)C(=O)N[C@@H](CCCNC(=N)N)C(N)=O)C(C)C [SEQ ID NO: 40] (H-H[Aib]EGTFTSDVSSYGEGQAAKEFIAWLVK[Aib]R-NH2) | > 5.00
CC[C@H](C)[C@H](NC(=O)[C@H](Cc1ccccc1)NC(=O)[C@H](CCC(=O)O)NC(=O)[C@H](CCCNC(=N)N)NC(=O)[C@@H](NC(=O)[C@H](C)NC(=O)[C@H](CCC(N)=O)NC(=O)[C@H](CCC(=O)O)NC(=O)[C@H](CCC(=O)O)NC(=O)[C@H](CC(C)C)NC(=O)[C@H](Cc1ccc(O)cc1)NC(=O)[C@H](CO)NC(=O)[C@H](CO)NC(=O)[C@@H](NC(=O)[C@H](CC(=O)O)NC(=O)[C@H](CO)NC(=O)[C@@H](NC(=O)[C@H](Cc1ccccc1)NC(=O)[C@@H](NC(=O)CNC(=O)[C@H](CCC(=O)O)NC(=O)C(C)(C)NC(=O)[C@@H](N)Cc1c[nH]cn1)[C@@H](C)O)[C@@H](C)O)C(C)C)C(C)C)C(=O)N[C@@H](C)C(=O)N[C@@H](Cc1c[nH]c2ccccc12)C(=O)N[C@@H](CC(C)C)C(=O)N[C@H](C(=O)N[C@@H](CCCNC(=N)N)C(=O)NC(C)(C)C(=O)N[C@@H](CCCNC(=N)N)C(N)=O)[C@@H](C)CC [SEQ ID NO: 62] (H-H[Aib]EGTFTSDVSSYLEEQAVREFIAWLIR[Aib]R-NH2) | > 5.00
